# Reference: US11932657B2, “Heterocyclic compound” (priority 2018, dated 2024)
# Tests used:
# [1] = target: T1, aryl hydrocarbon receptor (AhR) (Homo sapiens, UniProt P35869); assay: AhR reporter gene assay (aryl hydrocarbon receptor antagonist activity, DRE-Luc HepG2 cells, TCDD-stimulated luciferase); type: cell-based
# T1 construct: DRE-Luc HepG2 cells subcultured in a 225 cm^2 flask; endogenous in cells; host or cells: HepG2 (ATCC), stably transfected with the reporter hCYP1A1/pGL4.27 (DRE-Luc HepG2)
# T1 sequence (P35869 11-848): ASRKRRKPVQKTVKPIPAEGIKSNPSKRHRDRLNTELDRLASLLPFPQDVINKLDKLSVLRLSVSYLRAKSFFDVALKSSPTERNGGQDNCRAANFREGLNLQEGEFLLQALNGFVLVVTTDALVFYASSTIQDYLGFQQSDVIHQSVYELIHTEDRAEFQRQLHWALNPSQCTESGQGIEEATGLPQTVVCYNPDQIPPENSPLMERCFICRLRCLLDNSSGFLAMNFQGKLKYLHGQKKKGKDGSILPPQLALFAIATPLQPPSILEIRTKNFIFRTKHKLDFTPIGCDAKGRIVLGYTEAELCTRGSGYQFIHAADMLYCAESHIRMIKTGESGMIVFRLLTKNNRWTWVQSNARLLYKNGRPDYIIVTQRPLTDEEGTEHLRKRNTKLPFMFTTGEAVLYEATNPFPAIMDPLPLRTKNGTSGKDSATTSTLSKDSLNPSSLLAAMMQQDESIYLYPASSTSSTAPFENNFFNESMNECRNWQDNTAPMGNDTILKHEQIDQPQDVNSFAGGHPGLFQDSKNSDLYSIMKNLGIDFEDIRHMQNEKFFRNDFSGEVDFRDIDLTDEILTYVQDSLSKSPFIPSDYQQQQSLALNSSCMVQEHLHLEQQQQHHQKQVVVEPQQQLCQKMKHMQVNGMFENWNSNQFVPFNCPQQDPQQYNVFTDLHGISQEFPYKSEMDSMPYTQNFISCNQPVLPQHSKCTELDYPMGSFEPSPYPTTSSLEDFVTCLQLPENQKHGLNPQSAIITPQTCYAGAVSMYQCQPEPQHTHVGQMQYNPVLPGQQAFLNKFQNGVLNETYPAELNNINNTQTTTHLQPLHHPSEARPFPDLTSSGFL
# Protocol: Test Example 1 (Aryl Hydrocarbon Receptor Antagonist Activity)
# An expression vector, hCYP1A1/pGL4.27 was introduced into HepG2 cells (derived from American Type Culture Collection (ATCC)) that were seeded in 6-well plates (#3810-006 (Iwaki)) at 1.2×10^6 cells/well, using Lipofectamine 3000 (#100022050 (Invitrogen)). Referring to Garrion P M et al., Fundam Appl Toxicol, 30, 194 (1996), the vector hCYP1A1/pGL4.27 incorporated the human CYP1A1 promotor region including dioxin responsive element (DRE) region of the AhR binding region into the XhoI-BglII restriction enzyme site of pGL4.27 (#E8451 (Promega)). After 24 hours, medium-1 was replaced, and after 48 hours, the medium-1 containing hygromycin B (200 to 1000 μg/mL) was subjected to drug treatment. Culturing using the medium containing hygromycin B was continued for about 1 month to clone 24 clones showing drug resistance. A cell line showing high reporter activity was selected (DRE-Luc HepG2) from drug resistant lines using as an indicator luciferase activity (Dual-Glo Luciferase substrate, #E297A (Promega)) relative to an AhR agonist, 2,3,7,8-tetrachlorodibenzo-p-dioxin (TCDD) (#ED-901-B (CIL.)).
# DRE-Luc HepG2 cells subcultured in a 225 cm^2 flask (#11-0005 (Iwaki)) were washed with PBS (#1419-144 (Gibco), Lot: 1896207), and thereto was added 8 mL of Trypsin-EDTA (0.05%) (#25300-054 (Gibco)). Thereafter, an excessive liquid was removed from the mixture, and the cells were stood at room temperature for 5 minutes. Thereto was added 10 mL of medium-2, the cells were recovered through a cell strainer (#352350 (Falcon), 70 μm), and the number of cells were then counted using a hemocytometer. A cell suspension was prepared at 3×10^5 cells/mL, 100 μL/well of the cell suspension was seeded into a 96-well white plate (#136101, F96 Microwell (Nunc)), and the cells were then cultured in a CO2 incubator (5% CO2, 37° C.). After 24 hours, the medium was aspirated, and thereto was added 100 μL of an assay medium solution including the compound of the present invention, and the cells were cultured in the CO2 incubator (5% CO2, 37° C.). After 24 hours, 11 μL of an assay medium solution including 5×10^−10 M TCDD (#ED-901-B (CIL.)) was added thereto and the cells were cultured in the CO2 incubator (5% CO2, 37° C.). After 24 hours, 50 μL of a reaction substrate (#E253B, Steady-Glo Luciferase substrate (Promega)) for Firefly Luciferase enzyme reaction was added to each well, and after 5 minute-shaking, the light emission intensity was measured with Wallac ARVO 1420sx (PerkinElmer).
# [2] = test system: immortalized megakaryocyte line (SeV2-MKCL); assay: Platelet production: static culturing of immortalized megakaryocyte line; type: cell-based; details: compound final concentration 0.1 μM, static culturing 6 to 7 days, control (DMSO) set to 1; platelets = CD41, CD42b and CD42a-positive cells
# Protocol: Test Example 2 (Platelet Production: Static Culturing)
# The immortalized megakaryocyte line (SeV2-MKCL) obtained according to the method described in WO 2016/204256 was washed twice with D-PBS(−) and then cultured in medium not containing doxycycline to terminate forced expression. Culturing was implemented by seeding the cells at 1 mL/well in a 24-well plate (#662160 (Greiner Rio-One)) at a seeding density of 1×10^5 cells/mL followed by static culturing in the medium indicated below.
# The medium was obtained by adding the following components to IMDM serving as the basal medium (concentrations indicate final concentrations).
# Culturing was implemented under conditions of 37° C. and 5% CO2. At the same time, the compound of the present invention (final concentration 0.1 μM) or DMSO (control) was added and cultured for 6 to 7 days. Thereafter, the number of platelets (CD41, CD42b, and CD42a-positive cells) was measured. The measurement method was as shown below. The same procedure was performed with the control.
# A portion of the culture supernatant was harvested 6 to 7 days after culturing to terminate gene expression, and suspended with the following antibodies to stain them. eFluor 450-labeled anti-CD42a antibody (#48-0428-42 (eBioscience)) PE-labeled anti-CD42b antibody (#303906 (BioLegend)) APC-labeled anti-CD41 antibody (#303710 (BioLegend)) The number of platelets was counted using FACSVerse manufactured by BD 30 minutes after the stain reaction. In the measurement of the number of platelets, the number of cells was corrected using Flow-count beads (#7547053 (Beckman Coulter)).
# The number of platelets produced from one megakaryocyte cell was calculated based on the number of platelets in the sample obtained by the FACS measurement, and the result was defined as platelet production efficiency (PLT/MK) and used for evaluation of drug efficacy of the compound. In addition, the specific activity at the time when the platelet production efficiency of the control was set to 1 was indicated as fold increase.
Structure (SMILES),IC50 [1],Static (vs veh): fold increase of platelet production efficiency (PLT/MK) [2]
Cc1cncc(-c2nc(NCCc3ccc(O)c(-c4cccc(C#N)c4F)c3)c3nc4n(c3n2)C(C)(C)CO4)c1 [Example 68],2.8 nM,3.2
"CC1(C)COc2nc3c(NCCc4ccc(O)c(-c5cccnc5)c4)nc(-c4cncc(F)c4)nc3n21 [Example 32, 4-[2-[[2-(5-fluoropyridin-3-yl)-8,8-dimethyl-7H-purino[8,9-b][1,3]oxazol-4-yl]amino]ethyl]-2-pyridin-3-ylphenol]",29 nM,6.8
CC1(C)C[S+]([O-])c2nc3c(NCCc4ccc(O)c(-c5ccccc5F)c4)nc(-c4cncc(F)c4)nc3n21 (stereo not drawn) [Example 20],0.058 nM,6.5
CC1(C)COc2nc3c(NCCc4ccc(O)c(-c5cc(F)cc(F)c5)c4)nc(-c4cncc(F)c4)nc3n21 [Example 12],12 nM,7.6
CC1(C)CSc2nc3c(NCCc4ccc(O)c(-c5ccccc5)c4)nc(-c4cncc(C#N)c4)nc3n21 [Example 48],0.42 nM,3.5
CC1(C)COc2nc3c(NCCc4ccc(O)c(-c5cccc(C#N)c5F)c4)nc(-c4cncc(F)c4)nc3n21 [Example 55],1.2 nM,6.8
C[C@@H]1CSc2nc3c(NCCc4ccc(O)c(-c5cccc(F)c5)c4)nc(-c4cncc(F)c4)nc3n21 [Example 29],0.37 nM,8.4
CC1(C)CSc2nc3c(NCCc4ccc(O)c(-c5ccccc5F)c4)nc(-c4ccc5nccn5c4)nc3n21 [Example 52],1.8 nM,5.3
CC1(C)COc2nc3c(NCCc4ccc(O)c(-c5cccc(C(F)(F)F)c5)c4)nc(-c4cncc(F)c4)nc3n21 [Example 16],3.9 nM,10
Cc1cncc(-c2nc(NCCc3ccc(O)c(-c4cccc(F)c4)c3)c3nc4n(c3n2)C(C)(C)CS4)c1 [Example 27],0.35 nM,6.0
C[C@@H]1COc2nc3c(NCCc4ccc(O)c(-c5cncc(C#N)c5)c4)nc(-c4cncc(F)c4)nc3n21 [Example 77],9.2 nM,3.5
CC1(C)COc2nc3c(NCCc4ccc(O)c(-c5cccc(S(C)(=O)=O)c5)c4)nc(-c4cncc(F)c4)nc3n21 [Example 78],3.9 nM,4.3
CC1(C)COc2nc3c(NCCc4ccc(O)c(-c5cccc(C#N)c5)c4)nc(-c4ccc5nccn5c4)nc3n21 [Example 63],17 nM,4.8
CC1(C)CSc2nc3c(NCCc4ccc(O)c(-c5cccc(F)c5)c4)nc(-c4cncc(C#N)c4)nc3n21 [Example 37],0.53 nM,2.1
"CC1(C)COc2nc3c(NCCc4ccc(O)c(-c5cccc(C#N)c5)c4)nc(-c4cncc(F)c4)nc3n21 [Example 17, 3-[5-[2-[[2-(5-fluoropyridin-3-yl)-8,8-dimethyl-7H-purino[8,9-b][1,3]oxazol-4-yl]amino]ethyl]-2-hydroxyphenyl]benzonitrile]",2.3 nM,7.8
C[C@H]1CSc2nc3c(NCCc4ccc(O)c(-c5ccccc5F)c4)nc(-c4cncc(F)c4)nc3n21 [Example 30],0.78 nM,6.7
C[C@@H]1CSc2nc3c(NCCc4ccc(O)c(-c5cncc(F)c5)c4)nc(-c4cncc(F)c4)nc3n21 [Example 71],4.7 nM,7.2
CC1(C)COc2nc3c(NCCc4ccc(O)c(-c5c(F)cccc5F)c4)nc(-c4cncc(C#N)c4)nc3n21 [Example 45],11 nM,2.4
"CC1(C)COc2nc3c(NCCc4ccc(O)c(-c5ccccc5)c4)nc(-c4cncc(C#N)c4)nc3n21 [Example 46, 5-[4-[2-(4-hydroxy-3-phenylphenyl)ethylamino]-8,8-dimethyl-7H-purino[8,9-b][1,3]oxazol-2-yl]pyridine-3-carbonitrile]",9.9 nM,5.0
CC1(C)COc2nc3c(NCCc4ccc(O)c(-c5cc(F)ccc5F)c4)nc(-c4cncc(F)c4)nc3n21 [Example 10],11 nM,5.5
CC1(C)CSc2nc3c(NCCc4ccc(O)c(-c5cccc(C#N)c5)c4)nc(-c4cncc(F)c4)nc3n21 [Example 57],0.39 nM,4.9
Cc1cncc(-c2nc(NCCc3ccc(O)c(-c4ccccc4)c3)c3nc4n(c3n2)C(C)(C)CO4)c1 [Example 22],9.8 nM,7.3
Fc1cncc(-c2nc(NCCc3c[nH]c4ccccc34)c3nc4n(c3n2)CCCS4)c1 [Example 109],11 nM,7.8
CC1(C)COc2nc3c(NCCc4ccc(O)c(-c5cccc(F)c5F)c4)nc(-c4cncc(F)c4)nc3n21 [Example 11],6.4 nM,8.5
